Assay results: patent US8192962B2, “Processes for detecting toxic substances” (Daikin Industries, Ltd., priority 2001, dated 2012)

Test system: Mitochondria-located protein genes
Assay: DNA chip mRNA expression in yeast, mitochondria-located protein genes (Table 2)
Format: cell-based, Saccharomyces cerevisiae S288C
Settings: cells incubated two hours with the chemical substance
Outline: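 First, S288C yeast grown in YPD at 25° C. are dosed in log phase with one toxicant (growth-inhibiting, not lethal) for 2 h. Next, total RNA is extracted and poly(A) mRNA isolated and reverse-transcribed with Cy3/Cy5-dUTP. Finally, whole-genome chip fluorescence is read relative to unexposed cells.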

[Cl][Pb][Cl] [(4), PbCl2]
The level of expressed mRNA in the presence of chemical substance/The level of expressed mRNA in the absence of chemical substance (yeast gene YAL039C): 1.0 | The level of expressed mRNA in the presence of chemical substance/The level of expressed mRNA in the absence of chemical substance (yeast gene YBL022C): 0.7 | The level of expressed mRNA in the presence of chemical substance/The level of expressed mRNA in the absence of chemical substance (yeast gene YBL030C): 0.9 | The level of expressed mRNA in the presence of chemical substance/The level of expressed mRNA in the absence of chemical substance (yeast gene YBL038W): 1.8 | The level of expressed mRNA in the presence of chemical substance/The level of expressed mRNA in the absence of chemical substance (yeast gene YBL099W): 1.4 | The level of expressed mRNA in the presence of chemical substance/The level of expressed mRNA in the absence of chemical substance (yeast gene YBR003W): 1.9 | The level of expressed mRNA in the presence of chemical substance/The level of expressed mRNA in the absence of chemical substance (yeast gene YBR044C): 1.9 | The level of expressed mRNA in the presence of chemical substance/The level of expressed mRNA in the absence of chemical substance (yeast gene YBR091C): 3.0 | The level of expressed mRNA in the presence of chemical substance/The level of expressed mRNA in the absence of chemical substance (yeast gene YBR122C): 1.1 | The level of expressed mRNA in the presence of chemical substance/The level of expressed mRNA in the absence of chemical substance (yeast gene YBR185C): 2.0 | The level of expressed mRNA in the presence of chemical substance/The level of expressed mRNA in the absence of chemical substance (yeast gene YBR221C): 1.5 | The level of expressed mRNA in the presence of chemical substance/The level of expressed mRNA in the absence of chemical substance (yeast gene YBR251W): 1.2 | The level of expressed mRNA in the presence of chemical substance/The level of expressed mRNA in the absence of chemical substance (yeast gene YBR282W): 2.3 | The level of expressed mRNA in the presence of chemical substance/The level of expressed mRNA in the absence of chemical substance (yeast gene YCL057W): 0.5 | The level of expressed mRNA in the presence of chemical substance/The level of expressed mRNA in the absence of chemical substance (yeast gene YCR046C): 1.6 | The level of expressed mRNA in the presence of chemical substance/The level of expressed mRNA in the absence of chemical substance (yeast gene YCR083W): 1.8 | The level of expressed mRNA in the presence of chemical substance/The level of expressed mRNA in the absence of chemical substance (yeast gene YDL067C): 1.3 | The level of expressed mRNA in the presence of chemical substance/The level of expressed mRNA in the absence of chemical substance (yeast gene YDL181W): 1.8 | The level of expressed mRNA in the presence of chemical substance/The level of expressed mRNA in the absence of chemical substance (yeast gene YDL198C): 1.4 | The level of expressed mRNA in the presence of chemical substance/The level of expressed mRNA in the absence of chemical substance (yeast gene YDR079W): 1.1 | The level of expressed mRNA in the presence of chemical substance/The level of expressed mRNA in the absence of chemical substance (yeast gene YDR178W): 2.2 | The level of expressed mRNA in the presence of chemical substance/The level of expressed mRNA in the absence of chemical substance (yeast gene YDR231C): 1.5 | The level of expressed mRNA in the presence of chemical substance/The level of expressed mRNA in the absence of chemical substance (yeast gene YDR258C): 1.4 | The level of expressed mRNA in the presence of chemical substance/The level of expressed mRNA in the absence of chemical substance (yeast gene YDR298C): 1.3 | The level of expressed mRNA in the presence of chemical substance/The level of expressed mRNA in the absence of chemical substance (yeast gene YDR347W): 3.5 | The level of expressed mRNA in the presence of chemical substance/The level of expressed mRNA in the absence of chemical substance (yeast gene YDR377W): 1.4 | The level of expressed mRNA in the presence of chemical substance/The level of expressed mRNA in the absence of chemical substance (yeast gene YDR529C): 3.2 | The level of expressed mRNA in the presence of chemical substance/The level of expressed mRNA in the absence of chemical substance (yeast gene YEL024W): 1.1 | The level of expressed mRNA in the presence of chemical substance/The level of expressed mRNA in the absence of chemical substance (yeast gene YEL039C): 5.1 | The level of expressed mRNA in the presence of chemical substance/The level of expressed mRNA in the absence of chemical substance (yeast gene YER178W): 1.0 | The level of expressed mRNA in the presence of chemical substance/The level of expressed mRNA in the absence of chemical substance (yeast gene YFL016C): 0.9 | The level of expressed mRNA in the presence of chemical substance/The level of expressed mRNA in the absence of chemical substance (yeast gene YGL018C): 3.0 | The level of expressed mRNA in the presence of chemical substance/The level of expressed mRNA in the absence of chemical substance (yeast gene YGL187C): 1.8 | The level of expressed mRNA in the presence of chemical substance/The level of expressed mRNA in the absence of chemical substance (yeast gene YGL191W): 1.8 | The level of expressed mRNA in the presence of chemical substance/The level of expressed mRNA in the absence of chemical substance (yeast gene YGR008C): 3.2 | The level of expressed mRNA in the presence of chemical substance/The level of expressed mRNA in the absence of chemical substance (yeast gene YGR028W): 1.8 | The level of expressed mRNA in the presence of chemical substance/The level of expressed mRNA in the absence of chemical substance (yeast gene YGR062C): 1.4 | The level of expressed mRNA in the presence of chemical substance/The level of expressed mRNA in the absence of chemical substance (yeast gene YGR076C): 2.3 | The level of expressed mRNA in the presence of chemical substance/The level of expressed mRNA in the absence of chemical substance (yeast gene YGR082W): 1.0 | The level of expressed mRNA in the presence of chemical substance/The level of expressed mRNA in the absence of chemical substance (yeast gene YGR174C): 2.4 | The level of expressed mRNA in the presence of chemical substance/The level of expressed mRNA in the absence of chemical substance (yeast gene YGR244C): 1.6 | The level of expressed mRNA in the presence of chemical substance/The level of expressed mRNA in the absence of chemical substance (yeast gene YHR008C): 1.8 | The level of expressed mRNA in the presence of chemical substance/The level of expressed mRNA in the absence of chemical substance (yeast gene YIL155C): 3.7 | The level of expressed mRNA in the presence of chemical substance/The level of expressed mRNA in the absence of chemical substance (yeast gene YJL096W): 1.3 | The level of expressed mRNA in the presence of chemical substance/The level of expressed mRNA in the absence of chemical substance (yeast gene YJL102W): 0.8 | The level of expressed mRNA in the presence of chemical substance/The level of expressed mRNA in the absence of chemical substance (yeast gene YJL133W): 0.9 | The level of expressed mRNA in the presence of chemical substance/The level of expressed mRNA in the absence of chemical substance (yeast gene YJL166W): 1.3 | The level of expressed mRNA in the presence of chemical substance/The level of expressed mRNA in the absence of chemical substance (yeast gene YJL180C): 1.3 | The level of expressed mRNA in the presence of chemical substance/The level of expressed mRNA in the absence of chemical substance (yeast gene YJR077C): 1.6 | The level of expressed mRNA in the presence of chemical substance/The level of expressed mRNA in the absence of chemical substance (yeast gene YJR121W): 1.0
